Key:
P3R foAC neocartilage [1] = experiment: Phase 3: TCL treatment of cytochalasin D treated P3R Opt neocartilage; assay type: cell-based, sheep; conditions: Phase 3, P3R Opt, 2 million cells
Method: (§1) Chondrocyte Isolation: Fetal ovine articular chondrocytes (foACs) were harvested from the patellofemoral surfaces of 120-day gestation Dorper cross sheep obtained as medical waste (UC Davis School of Veterinary Medicine). Cartilage from the whole surface of both condyles and the trochlear groove was minced into approximately 1 mm^3 pieces, then washed and centrifuged (500 G for 5 minutes) three times with Dulbecco's Modified Eagle Medium containing 4.5 g/L glucose and GlutaMAX (DMEM; Gibco) and 2% (v/v) penicillin/streptomycin/fungizone (PSF; Lonza). The tissue was digested in 0.2% (w/v) collagenase type II (Worthington) in DMEM containing 3% (v/v) fetal bovine serum (FBS; Atlanta Biologicals) for 18 hours at 37° C. with gentle rocking. After digestion, the resultant cell solutions were filtered through 70 μm cell strainers. For Studies 1-3, foACs were washed with ACK buffer (154.4 mM ammonium chloride (Sigma), 10 mM potassium bicarbonate (Fisher Scientific), 50 mM EDTA tetrasodium salt (Acros Organics) in ultrapure water for three minutes as previously described. These primary (P0) foACs were then frozen in DMEM with 20% (v/v) DMSO (Sigma) and 10% (v/v) FBS.
Chondrocyte Expansion and Redifferentiation: Previously frozen P0 foACs were seeded in T-225 flasks at 1.5×10^4 cells/cm^2 and expanded in chemically defined chondrogenic medium (CHG medium) (DMEM containing 1% PSF, 1% ITS+ premix (BD Biosciences), 1% non-essential amino acids (Gibco), 100 nM dexamethasone (Sigma), 50 mg/mL ascorbate-2-phosphate (Sigma), 40 g/mL L-proline (Sigma), and […] sodium pyruvate (Sigma)) with 2% FBS and chondrogenically tuned TFP supplementation (1 ng/mL TGF-μ1, 5 ng/mL bFGF, 10 ng/mL PDGF; al from PeproTech). Media was exchanged every 2-3 days. At confluence, cells were lifted with 0.5% Trypsin-EDTA (Gibco) for 5 minutes followed by digestion of the cell layers with DMEM containing 0.2% collagenase type II and 2% FBS for approximately 1 hour at 37° C., triturating every 20 minutes. […] Following dissociation of the aggregates, cells were filtered through a 70 μm cell strainer and counted. […]

P3 and P3R foACs = experiment: Chondrocyte F-actin visualization (phalloidin staining); assay type: cell-based, sheep
Method: Chondrocyte Actin Visualization: In Phase 2, to visualize the effects of cytochalasin D treatment on cytoskeletal-mediated chondrogenic redifferentiation, F-actin staining was performed on untreated P0 foACs and both cytochalasin D treated and untreated P3 and P3R foACs. Approximately 8×10^3 cells/cm^2 were allowed to attach to glass slides for 1 hour in the presence of 2% FBS. Non-adherent cells were washed away with two exchanges of PBS, followed by the fixation of attached cells in 3.9% formaldehyde in PBS for 10 minutes. After another two washes with PBS, fixed cells were permeabilized with 0.1% Triton-X 100 (Sigma) in PBS for 5 minutes. Following two washes with PBS, cells were stained with CF594-conjugated phalloidin (Biotium; 1200 dilution in PBS) for 30 minutes. Excess stain was washed away with two exchanges of PBS and the cells were counterstained with DAPI-containing Vectashield (Vector Laboratories) and coverslipped for visualization using a Texas Red fluorescent channel.

P3R foAC neocartilage [2] = experiment: Phase 2: cytochalasin D and hyaluronidase treatment of P3R (passaged, redifferentiated) neocartilage; assay type: cell-based, sheep; conditions: for neocartilage thickness / neocartilage wet weight / construct diameter: P3R Opt; for construct diameter: Cyto D 2 μM first 48 hours, Hya 200 units/mL at seeding
Method: as §1
(§2) Chondrocyte Expansion and Redifferentiation: Previously frozen P0 foACs were seeded in T-225 flasks at 1.5×10^4 cells/cm^2 and expanded in chemically defined chondrogenic medium (CHG medium) (DMEM containing 1% PSF, 1% ITS+ premix (BD Biosciences), 1% non-essential amino acids (Gibco), 100 nM dexamethasone (Sigma), 50 mg/mL ascorbate-2-phosphate (Sigma), 40 g/mL L-proline (Sigma), and […] sodium pyruvate (Sigma)) with 2% FBS and chondrogenically tuned TFP supplementation (1 ng/mL TGF-μ1, 5 ng/mL bFGF, 10 ng/mL PDGF; al from PeproTech). Media was exchanged every 2-3 days. At confluence, cells were lifted with 0.5% Trypsin-EDTA (Gibco) for 5 minutes followed by digestion of the cell layers with DMEM containing 0.2% collagenase type II and 2% FBS for approximately 1 hour at 37° C., triturating every 20 minutes. The resulting cell solution was filtered through a 70 μm cell strainer and reseeded into T-225 flasks to achieve three passages (P3). P3 foACs underwent aggregate redifferentiation (P3R) as previously described. Briefly, 750,000 cells/mL CHG medium containing TGB supplementation (10 ng/mL TGF-β1, 100 ng/mL GDF-5, 100 ng/mL BMP-2; al from PeproTech) were cultured in 100 mm×20 mm petri dishes coated with 1% (w/v) molecular biology grade agarose (Thermo Fisher Scientific) made with phosphate buffered saline (PBS; Sigma) to create a non-adherent environment. Aggregate cultures were maintained on an orbital shaker at 60 rpm for the first 3 days and remained static for the remainder of the 14-day redifferentiation period. Media was exchanged every 2-3 days. At the end of the culture period, aggregates were digested with 0.5% Trypsin-EDTA for 20 minutes, followed by 0.2% collagenase in DMEM with 2% FBS for approximately 2 hours at 37° C., triturating every 20 minutes. Following dissociation of the aggregates, cells were filtered through a 70 μm cell strainer and counted.
(§3) Neocartilage Construct Seeding and Culture: P0, P3, or P3R foACs were self-assembled into engineered neocartilage constructs in non-adherent agarose wells. A sterile stainless steel mold consisting of 5 mm diameter cylindrical posts was inserted into a 48-well plate, each well containing 1 mL molten 2% (w/v) agarose to create a single agarose well per plate well. After solidification of the agarose at room temperature, the mold was removed. Agarose wells were filled with CHG medium exchanged twice over the course of 5 days to ensure saturation of the agarose before seeding. For each phase, cells were seeded into 5 mm agarose wells in 100 μL CHG medium per well. In Phase 1, P0 or P3R foACs were each seeded at five densities: 2, 3, 4, 5, and 6 million cells per construct. In Phase 2, P3 and P3R foACs were seeded at 2 million cells per construct. In Phase 3, 2 million P3R foACs were seeded. […]

[3] = tested on: adult human costal chondrocytes (ahCCs); experiment: Cyto D treatment of self-assembled neocartilage from human costal chondrocytes (FIG. 18); assay type: cell-based; conditions: ahCCs P3 rejuvenated, 2 million cells, 2 μM at day 0-2
Method: Control constructs were untreated. Constructs treated with cytochalasin D (Cyto D) were treated with 2 μM at day 0-2. […] This example clearly illustrates that it is not obvious that a treatment that is beneficial for cells from one species will be beneficial when applied to cells from another species.

P3 foAC neocartilage = experiment: Phase 2: cytochalasin D and hyaluronidase treatment of P3 (passaged, not redifferentiated) neocartilage; assay type: cell-based, sheep; conditions: P3, 2 million cells/construct; for construct diameter: Cyto D 2 μM first 48 hours, Hya 200 units/mL at seeding
Method: as §1, §2, §3

[4] = P3R Opt neocartilage, over the untreated group
[5] = cytochalasin D treated P3R Opt neocartilage
[6] = foACs P3 rejuvenated, 2 million cells, 2 μM at day 0-2, FIG. 18

With C=C1[C@@H](C)[C@H]2[C@H](Cc3ccccc3)NC(=O)[C@]23[C@H](OC(C)=O)/C=C/[C@@](C)(O)C(=O)[C@@H](C)C/C=C/[C@H]3[C@@H]1O [cytochalasin D] the neocartilage diameter (P3R foAC neocartilage [1]) was 6.5±0.4 mm, the neocartilage thickness (P3R foAC neocartilage [1]) was 0.8±0.2 mm and the neocartilage wet weight (P3R foAC neocartilage [1]) was 87.1 ± 3.6 mg. The actin arrangement (P3 and P3R foACs; P3R chondrocytes) was “localized more of the actin cortically than in untreated P3R cells”, the “cell shape and actin arrangement” value (P3 and P3R foACs; P3 chondrocytes) was “induced a rounded cell shape” and the “increase of aggregate modulus over the P0 control” value (P3R foAC neocartilage [2]; ACK treated P3R cells, 2 million cells/construct, vs untreated P0 control) was 9.6 fold. The neocartilage aggregate modulus (P3R foAC neocartilage [2]; ACK treated P3R chondrocytes seeded at 2 million cells/construct) was 400 kPa, the “increase in compressive stiffness (aggregate modulus)” value (P3R foAC neocartilage [2]; [4]) was 0.9 fold and the “increase in tensile stiffness” value (P3R foAC neocartilage [2]; [4]) was 1.0 fold. For the same molecule, the “increase in tensile strength” value (P3R foAC neocartilage [2]; [4]) was 2.7 fold, the neocartilage thickness (P3R foAC neocartilage [2]; 2 million cells/construct) was 0.7±0.1 mm and the neocartilage wet weight (P3R foAC neocartilage [2]; 2 million cells/construct) was 28.1 ± 2.6 mg. For the same molecule, the construct diameter (P3R foAC neocartilage [2]; 2 million cells/construct) was 6.5±0.2 mm, the GAG/wet weight (P3R foAC neocartilage [2]; P3R neocartilage, FIG. 8C) was “increased” and the “functionality index (FI) with respect to native fetal cartilage” value (P3R foAC neocartilage [2]; [5]) was 1.1. The “functionality index (FI) with respect to native juvenile cartilage” value (P3R foAC neocartilage [2]; [5]) was 0.83, the compressive aggregate modulus (P3R foAC neocartilage [2]; [6]) was “significantly increased” and the shear modulus (P3R foAC neocartilage [2]; [6]) was “significantly increased”. The aggregate modulus [3] was “significantly decreased”, the shear modulus [3] was “significantly decreased” and the neocartilage thickness (P3 foAC neocartilage) was 0.4±0.1 mm. For the same molecule, the neocartilage wet weight (P3 foAC neocartilage) was 8.4 ± 1.0 mg and the construct diameter (P3 foAC neocartilage) was 3.7±0.2 mm.
hyaluronidase gave a neocartilage thickness (P3R foAC neocartilage [2]; 2 million cells/construct) of 0.8±0.2 mm, a neocartilage wet weight (P3R foAC neocartilage [2]; 2 million cells/construct) of 23.9 ± 1.4 mg and a construct diameter (P3R foAC neocartilage [2]; 2 million cells/construct) of 5.9±0.0 mm. For the same molecule, the neocartilage thickness (P3 foAC neocartilage) was 2.0±0.2 mm, the neocartilage wet weight (P3 foAC neocartilage) was 6.7 ± 0.4 mg and the construct diameter (P3 foAC neocartilage) was 2.6±0.1 mm.

Reference: US20220025331A1, “METHODS AND SYSTEMS FOR IMPROVING CELLS FOR USE IN THERAPY” (priority 2017, published 2022)
